From patent US12673954B2 (BRISTOL-MYERS SQUIBB COMPANY, priority 2021, dated 2026)
Where two headings read alike, the source gives them in different places.

Tests used:
[1] = test system: IRF pathway, THP1-Dual™ cells; assay: STING reporter assay in THP1-Dual cells, IRF pathway (Lucia luciferase, QUANTI-Luc); format: cell-based, human; settings: read-out: IRF (EC50 μM)
Procedure, shortened: (§1)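 Activation normalised between DMSO-only baseline and 100 μM cGAMP maximum, after 20 h compound exposure (starting at 100 μM final) at 37° C, 5% CO2. Supernatant SEAP (QUANTI-Blue, OD620) reports NF-κB; secreted luciferase (QUANTI-Luc, RLU at 5 min) reports IRF.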

[2] = test system: NF-κB pathway, THP1-Dual™ cells; assay: STING reporter assay in THP1-Dual cells, NF-κB pathway (SEAP, QUANTI-Blue); format: cell-based, human; settings: read-out: NFkB (EC50 μM)
Procedure, shortened: as §1

[3] = Homo sapiens, THP1-Dual, 20 h, THP1-Dual cells, 10% human plasma, 20 hours, Lucia luciferase, 100% activation = 100 μM cGAMP
[4] = Homo sapiens, THP1-Dual, 20 h, THP1-Dual cells, 10% human plasma, 20 hours, SEAP, 100% activation = 100 μM cGAMP
[5] = THP1-Dual cells, 10% human plasma, 20 hours, Lucia luciferase, 100% activation = 100 μM cGAMP
[6] = THP1-Dual cells, 10% human plasma, 20 hours, SEAP, 100% activation = 100 μM cGAMP

SMILES	EC50 [1, 3] [µM]	EC50 [2, 4] [µM]	other results
C[Si](C)(C)CCSC(=O)c1cc(F)cc2c(Cl)c(CNC(=O)c3cnn4cccnc34)oc12 [EXAMPLE 392, S-(2-(Trimethylsilyl)ethyl) 3-chloro-5-fluoro-2-((pyrazolo[1,5-a]pyrimidine-3-carboxamido)methyl)benzofuran-7-carbothioate]			EC50 ([1]; Homo sapiens, THP1-Dual, 20 h): 3.4 µM; EC50 ([2]; Homo sapiens, THP1-Dual, 20 h): 2.7 µM
CSC(=O)c1cc(F)cc2c(Cl)c(CNC(=O)c3cnn4cccnc34)oc12 [EXAMPLE 393, S-Methyl 3-chloro-5-fluoro-2-((pyrazolo[1,5-a]pyrimidine-3-carboxamido)methyl)benzofuran-7-carbothioate]	0.39	0.3	
C[Si](C)(C)CCSC(=O)c1cc(Cl)cc2cc(CNC(=O)c3cnn4cccnc34)oc12 [EXAMPLE 394]			EC50 ([1]; Homo sapiens, THP1-Dual, 20 h): > 100 µM; EC50 ([2]; Homo sapiens, THP1-Dual, 20 h): 11 µM
CSC(=O)c1cc(Cl)cc2cc(CNC(=O)c3cnn4cccnc34)oc12 [EXAMPLE 395]	2.1	1.9	
CSC(=O)c1cc(Cl)cc2c(Cl)c(CNC(=O)c3cnn4cccnc34)oc12 [EXAMPLE 396]	0.36	0.37	
CSC(=O)c1cc(C)cc2c(Cl)c(CNC(=O)c3cnn4cccnc34)oc12 [EXAMPLE 397]	0.46	0.47	
C[C@H](NC(=O)c1cnn2cccnc12)c1cc2cc(F)cc(C(=O)SCC[Si](C)(C)C)c2o1 [EXAMPLE 398, S-(2-(Trimethylsilyl)ethyl) (S)-5-fluoro-2-(1-(pyrazolo[1,5-a]pyrimidine-3-carboxamido)ethyl)benzofuran-7-carbothioate]			EC50 ([1]; Homo sapiens, THP1-Dual, 20 h): 9.4 µM; EC50 ([2]; Homo sapiens, THP1-Dual, 20 h): 5.7 µM
CSC(=O)c1cc(F)cc2cc([C@H](C)NC(=O)c3cnn4cccnc34)oc12 [EXAMPLE 399, S-Methyl (S)-5-fluoro-2-(1-(pyrazolo[1,5-a]pyrimidine-3-carboxamido)ethyl)benzofuran-7-carbothioate]	1.3	1.5	
C[C@H](NC(=O)c1cnn2cccnc12)c1cc2cc(Cl)cc(C(=O)SCC[Si](C)(C)C)c2o1 [EXAMPLE 400, S-(2-(Trimethylsilyl)ethyl) (S)-5-chloro-2-(1-(pyrazolo[1,5-a]pyrimidine-3-carboxamido)ethyl)benzofuran-7-carbothioate]			EC50 ([1]; Homo sapiens, THP1-Dual, 20 h): 25 µM; EC50 ([2]; Homo sapiens, THP1-Dual, 20 h): 22 µM
CSC(=O)c1cc(Cl)cc2cc([C@H](C)NC(=O)c3cnn4cccnc34)oc12 [EXAMPLE 401]	1.9	1.9	
CSC(=O)c1cc(Cl)cc2c(Cl)c([C@H](C)NC(=O)c3cnn4cccnc34)oc12 [EXAMPLE 402]	2.4	2.4	
O=C(NCC(F)(F)F)c1cc(Cl)cc2cc(CNC(=O)c3cnn4cccnc34)oc12 [EXAMPLE 403, N-((5-Chloro-7-((2,2,2-trifluoroethyl)carbamoyl)benzofuran-2-yl)methyl)pyrazolo[1,5-a]pyrimidine-3-carboxamide]	> 100	97	
Cc1cc(C(N)=O)c2oc(CNC(=O)c3cnn4cccnc34)cc2c1 [EXAMPLE 404, N-((7-Carbamoyl-5-methylbenzofuran-2-yl)methyl)pyrazolo[1,5-a]pyrimidine-3-carboxamide]	> 100	83	
O=C(NO)c1cc(Cl)cc2cc(CNC(=O)c3cnn4cccnc34)oc12 [EXAMPLE 405, N-((5-Chloro-7-(hydroxycarbamoyl)benzofuran-2-yl)methyl)pyrazolo[1,5-a]pyrimidine-3-carboxamide]	30	61	
CONC(=O)c1cc(Cl)cc2cc(CNC(=O)c3cnn4cccnc34)oc12 [EXAMPLE 406, N-((5-Chloro-7-(methoxycarbamoyl)benzofuran-2-yl)methyl)pyrazolo[1,5-a]pyrimidine-3-carboxamide]	9.4	7.1	
Cc1cc(C(=O)NO)c2oc(CNC(=O)c3cnn4cccnc34)c(Cl)c2c1 [EXAMPLE 407, N-((3-chloro-7-(hydroxycarbamoyl)-5-methylbenzofuran-2-yl)methyl)pyrazolo[1,5-a]pyrimidine-3-carboxamide]	30	37	
CONC(=O)c1cc(C)cc2c(Cl)c(CNC(=O)c3cnn4cccnc34)oc12 [EXAMPLE 408, N-((3-chloro-7-(methoxycarbamoyl)-5-methylbenzofuran-2-yl)methyl)pyrazolo[1,5-a]pyrimidine-3-carboxamide]	0.91	1.2	
O=C(NCc1cc2cc(Cl)cc(-c3nnn[nH]3)c2o1)c1cncc2cccnc12 [EXAMPLE 410, N-((5-Chloro-7-(1H-tetrazol-5-yl)benzofuran-2-yl)methyl)-1,6-naphthyridine-8-carboxamide]	79	> 100	

SMILES	EC50 [1, 3] [µM]	EC50 [2, 4] [µM]	other results
COC(=O)Cc1cc(F)cc2cc(CNC(=O)c3cnn4cccnc34)oc12 [Example 47, Methyl 2-(5-fluoro-2-((pyrazolo[1,5-a]pyrimidine-3-carboxamido)methyl)benzofuran-7-yl)acetate]	6.7	8.5	
COC(=O)c1cc(Cl)cc2cc(CNC(=O)c3cnn4cccnc34)oc12 [Example 48, Methyl 5-chloro-2-((pyrazolo[1,5-a]pyrimidine-3-carboxamido)methyl)benzofuran-7-carboxylate]	0.64	0.68	
COC(=O)c1cc(Cl)cc2cc(CNC(=O)c3[nH]nc4cccnc34)oc12 [Example 49, Methyl 2-((2H-pyrazolo[4,3-b]pyridine-3-carboxamido)methyl)-5-chlorobenzofuran-7-carboxylate]	71	93	
COC(=O)c1cc(Cl)cc2cc(CNC(=O)c3cncc4cccnc34)oc12 [Example 50, Methyl 2-((1,6-naphthyridine-8-carboxamido)methyl)-5-chlorobenzofuran-7-carboxylate]	0.93	1.1	
COC(=O)c1cc(Cl)cc2cc(CNC(=O)c3cnn4ccc(OC)nc34)oc12 [Example 51, Methyl 5-chloro-2-((5-methoxypyrazolo[1,5-a]pyrimidine-3-carboxamido)methyl) benzofuran-7-carboxylate]			EC50 [1, 5]: 4 µM; EC50 [2, 6]: 3.1 µM
COC(=O)c1cc(Cl)cc2cc(CNC(=O)c3cnc4cccnn34)oc12 [Example 52, Methyl 5-chloro-2-((imidazo[1,2-b]pyridazine-3-carboxamido)methyl) benzofuran-7-carboxylate]			EC50 [1, 5]: 8 µM; EC50 [2, 6]: 9.8 µM
COC(=O)c1cc(Cl)cc2cc(CNC(=O)c3cc(N)ccn3)oc12 [Example 53, Methyl 2-((4-aminopicolinamido)methyl)-5-chlorobenzofuran-7-carboxylate]	22	27	
COC(=O)c1cc(Cl)cc2cc(CNC(=O)c3cnn4ccc(C)nc34)oc12 [Example 54, Methyl 5-chloro-2-((5-methylpyrazolo[1,5-a]pyrimidine-3-carboxamido)methyl) benzofuran-7-carboxylate]			EC50 [1, 5]: 2.6 µM; EC50 [2, 6]: 2.6 µM
COC(=O)c1cc(Cl)cc2cc(CNC(=O)c3cnn4cc(C)cnc34)oc12 [Example 55, Methyl 5-chloro-2-((6-methylpyrazolo[1,5-a]pyrimidine-3-carboxamido)methyl) benzofuran-7-carboxylate]			EC50 [1, 5]: 1.1 µM; EC50 [2, 6]: 1.1 µM
COC(=O)c1cc(Cl)cc2cc(CNC(=O)c3cnn4c(C)ccnc34)oc12 [Example 56, Methyl 5-chloro-2-((7-methylpyrazolo[1,5-a]pyrimidine-3-carboxamido)methyl) benzofuran-7-carboxylate]			EC50 [1, 5]: 30 µM; EC50 [2, 6]: > 33 µM
COC(=O)c1cc(Cl)cc2cc(CNC(=O)c3cnn4cc(Cl)cnc34)oc12 [Example 57, Methyl 5-chloro-2-((6-chloropyrazolo[1,5-a]pyrimidine-3-carboxamido)methyl) benzofuran-7-carboxylate]			EC50 [1, 5]: 9.5 µM; EC50 [2, 6]: 8.1 µM
COC(=O)c1cc(Cl)cc2cc(CNC(=O)c3cnccn3)oc12 [Example 58, Methyl 5-chloro-2-((pyrazine-2-carboxamido)methyl) benzofuran-7-carboxylate]			EC50 [1, 5]: 2.7 µM; EC50 [2, 6]: 2.9 µM
COC(=O)c1cc(Cl)cc2cc(CNC(=O)c3cncc(C)n3)oc12 [Example 59, Methyl 5-chloro-2-((6-methylpyrazine-2-carboxamido)methyl) benzofuran-7-carboxylate]			EC50 [1, 5]: 2.4 µM; EC50 [2, 6]: 2.6 µM
COC(=O)c1cc(Cl)cc2cc(CNC(=O)c3cncc(OC)n3)oc12 [Example 60, Methyl 5-chloro-2-((6-methoxypyrazine-2-carboxamido)methyl) benzofuran-7-carboxylate]			EC50 [1, 5]: 7.7 µM; EC50 [2, 6]: 8.9 µM
COC(=O)c1cc(Cl)cc2cc(CNC(=O)c3cncc(Cl)n3)oc12 [Example 61, Methyl 5-chloro-2-((6-chloropyrazine-2-carboxamido)methyl) benzofuran-7-carboxylate]			EC50 [1, 5]: 21 µM; EC50 [2, 6]: 21 µM
COC(=O)c1cc(Cl)cc2cc(CNC(=O)c3cncc(Br)n3)oc12 [Example 62, Methyl 2-((6-bromopyrazine-2-carboxamido)methyl)-5-chlorobenzofuran-7-carboxylate]	42	46	
COC(=O)c1cc(Cl)cc2cc(CNC(=O)c3c(N)nn4cccnc34)oc12 [Example 63, Methyl 2-((2-aminopyrazolo[1,5-a]pyrimidine-3-carboxamido)methyl)-5-chlorobenzofuran-7-carboxylate]	10	16	
